Columns and labels:
Assay in all cases: drug sensitivity score (DSS) from 5-dose viability curve (DSS (area-based score, 0 = no response)); higher = more sensitive (stronger viability inhibition); extreme values may be limits of the assay
[1] = tested on: MDCK wild-type - doxycycline; details: doxycycline: none; 72 h
Outline: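 Viability of parental MDCK cells cultured without doxycycline was measured by CellTiter-Glo luminescence and scaled per plate between vehicle and positive controls. The cells had been exposed for 72 h to an oncology library of 528 drugs at five doses (1-10,000 nM). Drug sensitivity scores were calculated from dose-response curve fits in the Breeze pipeline.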

[2] = tested on: MDCK p60AmotL2-inducible + doxycycline (p60AmotL2 expressing); details: doxycycline: 10 ng/mL; 72 h
Outline: (§1)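 Pre-spotted 384-well plates held 528 oncology drugs, each at five doses from 1 to 10,000 nM. Parental and doxycycline-inducible MDCK cells, exposed beforehand to 10 ng/mL doxycycline in the medium, were added at 2000 cells/well and incubated 72 h at 37 °C. Viability came from CellTiter-Glo luminescence normalized per plate to vehicle and positive controls, and the Breeze pipeline fitted dose-response curves to give drug sensitivity scores.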

[3] = tested on: MDCK wild-type + doxycycline; details: doxycycline: 10 ng/mL; 72 h
Outline: as §1

Q: Which results are given for `CNC(=O)c1ccccc1Sc1ccc2c(/C=C/c3ccccn3)n[nH]c2c1` [Axitinib]?
A: drug sensitivity score [1]: 0; drug sensitivity score [2]: 5.7; drug sensitivity score [3]: 0

Q: Which drug sensitivity score [1] does the source give for `C#Cc1cccc(Nc2ncnc3cc4c(cc23)OCCOCCOCCO4)c1` [Icotinib] here?
A: The drug sensitivity score was 0.

Q: And the drug sensitivity score [2]?
A: The drug sensitivity score was 7.8.

Q: And the drug sensitivity score [3]?
A: The drug sensitivity score was 2.4.

Q: For `CCCCCCCCCCCCCCCCOP(=O)([O-])OCC[N+](C)(C)C` [Miltefosine], which drug sensitivity score [1] is on record?
A: Its drug sensitivity score is 4.9.

Q: And the drug sensitivity score [2]?
A: Its drug sensitivity score is 5.3.

Q: What about the drug sensitivity score [3] of the same molecule?
A: Its drug sensitivity score is 5.2.

Q: Which results are given for `C[C@H](Nc1ncnc2[nH]cnc12)c1cc2ccc(F)cc2nc1-c1ccccn1` [AMG319]?
A: drug sensitivity score [1]: 0; drug sensitivity score [2]: 0; drug sensitivity score [3]: 0

Q: Which results are given for `O=c1[nH]c(C2CCCN2)nc2c1oc1ccc(Cl)cc12` (centres undefined)?
A: drug sensitivity score [1]: 0; drug sensitivity score [2]: 0; drug sensitivity score [3]: 0

Q: How did the drug sensitivity score [1] turn out when `CC(C)(C#N)c1cc(Cn2cncn2)cc(C(C)(C)C#N)c1` [Anastrozole] was run?
A: Its drug sensitivity score is 0.

Q: And the drug sensitivity score [2]?
A: The drug sensitivity score was 0.

Q: And the drug sensitivity score [3]?
A: The drug sensitivity score was 0.

Q: Which results are given for `CC(=O)c1c(C)c2cnc(Nc3ccc(N4CCNCC4)cn3)nc2n(C2CCCC2)c1=O` [Palbociclib]?
A: drug sensitivity score [1]: 0.9; drug sensitivity score [2]: 4.3; drug sensitivity score [3]: 0.9

Q: Which results are given for `O=C(/C=C\n1cnc(-c2cc(C(F)(F)F)cc(C(F)(F)F)c2)n1)NNc1ccccn1` [Verdinexor]?
A: drug sensitivity score [1]: 9.2; drug sensitivity score [2]: 10.1; drug sensitivity score [3]: 10.6

Q: `C=CC(=O)Nc1cccc(Nc2nc(Nc3ccc(N4CCN(C(C)=O)CC4)cc3OC)ncc2C(F)(F)F)c1` [Rociletinib] was tested. Which drug sensitivity score [1] did it give?
A: Its drug sensitivity score is 6.9.

Q: What about the drug sensitivity score [2] of the same molecule?
A: The drug sensitivity score was 10.4.

Q: And the drug sensitivity score [3]?
A: The drug sensitivity score was 6.7.

Q: Which drug sensitivity score [1] does the source give for `O=C1CCc2c(Oc3ccc4c(c3)[C@@H]3[C@H](O4)[C@H]3c3nc4cc(C(F)(F)F)ccc4[nH]3)ccnc2N1` [BGB-283] here?
A: Its drug sensitivity score is 1.6.

Q: And the drug sensitivity score [2]?
A: Its drug sensitivity score is 6.6.

Q: What about the drug sensitivity score [3] of the same molecule?
A: Its drug sensitivity score is 5.4.

Q: `C[C@]12C=CC(=O)C=C1CC[C@@H]1[C@@H]2[C@@H](O)C[C@@]2(C)[C@H]1CC[C@]2(O)C(=O)CO` [Prednisolone] was tested. Which drug sensitivity score [1] did it give?
A: Its drug sensitivity score is 1.2.

Q: And the drug sensitivity score [2]?
A: Its drug sensitivity score is 0.

Q: What about the drug sensitivity score [3] of the same molecule?
A: The drug sensitivity score was 0.

Q: `c1cn2cc(-c3ccc4cn[nH]c4c3)nc(Nc3ccc(N4CCOCC4)cc3)c2n1` [Entospletinib] was tested. Which drug sensitivity score [1] did it give?
A: Its drug sensitivity score is 0.

Q: What about the drug sensitivity score [2] of the same molecule?
A: Its drug sensitivity score is 0.

Q: And the drug sensitivity score [3]?
A: The drug sensitivity score was 0.

Q: With `NC(=O)c1cccc(-c2cccc(OC(=O)NC3CCCCC3)c2)c1` [URB597] as the molecule, how does the drug sensitivity score [1] read?
A: The drug sensitivity score was 0.

Q: And the drug sensitivity score [2]?
A: Its drug sensitivity score is 0.

Q: What about the drug sensitivity score [3] of the same molecule?
A: The drug sensitivity score was 0.

Q: For `CNC(=O)c1ccccc1Nc1cc(Nc2ccc(N3CCOCC3)cc2OC)ncc1C(F)(F)F` [VS-4718], which drug sensitivity score [1] is on record?
A: The drug sensitivity score was 3.6.

Q: And the drug sensitivity score [2]?
A: Its drug sensitivity score is 5.6.

Q: And the drug sensitivity score [3]?
A: The drug sensitivity score was 4.7.

Q: With `COc1cccc(OCCCN)c1-c1cc(Nc2cnc(C#N)cn2)n[nH]1` [Prexasertib] as the molecule, how does the drug sensitivity score [1] read?
A: Its drug sensitivity score is 0.8.

Q: And the drug sensitivity score [2]?
A: Its drug sensitivity score is 3.5.

Q: What about the drug sensitivity score [3] of the same molecule?
A: Its drug sensitivity score is 2.2.

Q: With `Cc1ccc(C(=O)Nc2cccc(C(F)(F)F)c2)cc1Nc1nc(-c2cccnc2)nc2c1cnn2C` [NVP-BHG712] as the molecule, how does the drug sensitivity score [1] read?
A: Its drug sensitivity score is 4.8.

Q: What about the drug sensitivity score [2] of the same molecule?
A: Its drug sensitivity score is 0.

Q: And the drug sensitivity score [3]?
A: Its drug sensitivity score is 0.

Q: For `Nc1ncnc2c1c(COc1cccc(Cl)c1)nn2C1CCOCC1`, which drug sensitivity score [1] is on record?
A: Its drug sensitivity score is 0.

Q: What about the drug sensitivity score [2] of the same molecule?
A: Its drug sensitivity score is 0.5.

Q: And the drug sensitivity score [3]?
A: Its drug sensitivity score is 0.

Q: `FC(F)c1nc2ccccc2n1-c1nc(N2CCOCC2)nc(N2CCOCC2)n1` [ZSTK474] was tested. Which drug sensitivity score [1] did it give?
A: The drug sensitivity score was 4.7.

Q: And the drug sensitivity score [2]?
A: Its drug sensitivity score is 10.3.

Q: What about the drug sensitivity score [3] of the same molecule?
A: The drug sensitivity score was 7.2.

Q: What does the source list for `COc1ccc(C[C@H](NC(=O)[C@H](C)NC(=O)CN2CCOCC2)C(=O)N[C@@H](Cc2ccccc2)C(=O)C2(C)CO2)cc1` (stereo in doubt) [ONX-0914]?
A: drug sensitivity score [1]: 8.6; drug sensitivity score [2]: 12.5; drug sensitivity score [3]: 10.4

Q: `CC[C@H](Nc1ncnc2[nH]cnc12)c1nc2cccc(F)c2c(=O)n1-c1ccccc1` [Idelalisib] was tested. Which drug sensitivity score [1] did it give?
A: The drug sensitivity score was 0.

Q: And the drug sensitivity score [2]?
A: The drug sensitivity score was 0.7.

Q: What about the drug sensitivity score [3] of the same molecule?
A: Its drug sensitivity score is 0.

Q: What does the source list for `Cc1cccc(CC(=O)N2CCc3c2ccc(-c2cn(C)c4ncnc(N)c24)c3F)n1`?
A: drug sensitivity score [1]: 0; drug sensitivity score [2]: 0; drug sensitivity score [3]: 0

Q: With `O=C(O)c1ccc(CN2CCC(CN[C@@H]3C[C@H]3c3ccccc3)CC2)cc1` as the molecule, how does the drug sensitivity score [1] read?
A: The drug sensitivity score was 0.

Q: What about the drug sensitivity score [2] of the same molecule?
A: The drug sensitivity score was 0.

Q: And the drug sensitivity score [3]?
A: The drug sensitivity score was 0.

Q: With `Nc1ccccc1NC(=O)c1ccc(CNC(=O)OCc2cccnc2)cc1` [Entinostat] as the molecule, how does the drug sensitivity score [1] read?
A: The drug sensitivity score was 5.4.

Q: What about the drug sensitivity score [2] of the same molecule?
A: The drug sensitivity score was 4.4.

Q: And the drug sensitivity score [3]?
A: The drug sensitivity score was 5.5.
